# Test results as given in US20090111759A1, “Synergistic Combination of Glutamate-and Gaba-Gated Chloride Agonist Pesticide and at Least One Vitamin E, Niacin, or Derivatives Thereof” (priority 2006, published 2009).
# Like-named read-outs stand apart in the source and are kept apart here.
# Experiments:
# [1] = system: nymphs of Dysdercus cingulatus; experiment: Dorsal application of Abamectin and Vitamin E derivatives, mortality (Example 19); format: in vivo; conditions: combination of Abamectin and the Vitamin E derivative; 2 μl dorsally; Colby
# Experimental: (§1) Various solutions of Vitamin E derivatives, Abamectin and combinations of Vitamin E derivatives and Abamectin were applied dorsally on nymphs of Dysdercus cingulatus. On each Dysdercus cingulatus 2 μl test solution was applied. The mortality of the treatments was recorded. The mortality results were analysed according to Colby. The synergistic activity of Abamectin and various Vitamin E derivatives on Dysdercus cingulatus is illustrated in table 19.
# houseflies [2] = experiment: Dorsal application of Abamectin and nicotinic acid derivatives, mortality (Example 21); format: in vivo, housefly; conditions: combination of Abamectin and the nicotinic acid derivative; 2 μl dorsally; Colby
# Experimental: Various solutions of nicotinic acid derivatives, Abamectin and combinations of nicotinic acid derivatives and Abamectin were applied dorsally on houseflies. On each housefly 2 μl test solution was applied. The mortality of the treatments was recorded. The mortality results were analysed according to Colby.
# [3] = system: cat fleas (Ctenocephalides felis felis) larvae; experiment: In vitro contact test on flea larvae (Example 25)
# [4] = system: cat fleas (Ctenocephalides felis felis) adult; experiment: In vitro contact test on adult fleas (Example 25)
# [5] = system: cat fleas (Ctenocephalides felis felis) larvae; experiment: In vitro larvae test based on systemic activity (Example 25)
# Tetranychus urticae = experiment: Spray test of Spinosad and tocopheryl acetate on bean plants (Vicia faba), leaf protection (Example 13); format: in vivo; conditions: single active, leaf protection 7 days after mites placed, average of four evaluations
# From the text: Using the alternative method for determining synergism the effect of each mixture of Spinosad and tocopheryl acetate is compared with the effect of the same rate of each of the active ingredients used alone.
# [6] = system: Dysdercus cingulatus nymphs; format: in vivo
# Experimental: (§2) A range of Ivermectin solutions in acetone was prepared. Similarly, a range of tocopherol solutions was prepared. Mixed solutions of Ivermectin and tocopherol in acetone were prepared as well. Nymphs of Dysdercus cingulatus were treated topically with either an Ivermectin acetone solution (2 μl), a tocopherol acetone solution (2 μl) or mixed solutions (2 μl).
# The mortality was recorded after 24 and 48 h. The results were evaluated by the Colby-method.
# [7] = system: Dysdercus cingulatus nymphs; format: in vivo; remark: listed apart in the source
# Experimental: Abamectin, Ivermectin and tocopherol solutions in acetone were prepared. Mixed solutions of either Abamectin or Ivermectin and tocopherol were also prepared. Nymphs of Dysdercus cingulatus were treated topically with Abamectin acetone solution (20,000 ng/nymph), Ivermectin acetone solution (20,000 ng/nymph), a tocopherol acetone solution (20,000 ng/nymph) or a solution containing Abamectin and tocopherol or Ivermectin and tocopherol in the ratio 1:3 (20,000 ng total/nymph). The solutions were applied dorsally on the nymphs.
# The Dysdercus cingulatus mortality was followed over time and recorded. Log time-mortality curves were constructed for the Abamectin and Ivermectin solutions and for the mixtures with tocopherol. An LT50 value was calculated for each application.
# Haemonchus contortus = experiment: Larvae feeding inhibition study (Example 23); conditions: for LFI-50 H. con.: larvae feeding inhibition 50%; for LFI-50 H. con. / LFI-96 H. con. / LFI-99 H. con.: Ivermectin resistant isolate, mixtures: based on concentration of IVM or DOR; for LFI-96 H. con.: larvae feeding inhibition 96%; for LFI-99 H. con.: larvae feeding inhibition 99%
# From the text: (§3) The calculations done according to Wadley and shown in Table 23 indicate that synergistic action of Ivermectin and tocopheryl acetate and Doramectin and tocopheryl acetate was pre-sent in the larvae feed inhibition study. The synergistic action of Ivermectin and tocepheryl acetate in the H. contortus experiment is of particular interest because the H. contortus iso-late used was Ivermectin resistant.
# [8] = system: Teladorsagia (Ostertagia) circumcincta; experiment: Larvae feeding inhibition study (Example 23); conditions: for LFI-50 T. cir.: larvae feeding inhibition 50%; for LFI-50 T. cir. / LFI-96 T. cir. / LFI-99 T. cir.: mixtures: based on concentration of IVM or DOR; for LFI-96 T. cir.: larvae feeding inhibition 96%; for LFI-99 T. cir.: larvae feeding inhibition 99%
# From the text: as §3
# [9] = system: Trichostrongylus colubriformis; experiment: Larvae feeding inhibition study (Example 23); conditions: for LFI-50 T. col.: larvae feeding inhibition 50%; for LFI-50 T. col. / LFI-96 T. col. / LFI-99 T. col.: mixtures: based on concentration of IVM or DOR; for LFI-96 T. col.: larvae feeding inhibition 96%; for LFI-99 T. col.: larvae feeding inhibition 99%
# From the text: as §3
# [10] = system: Onchocerca lienalis microfilariae; experiment: Microfilariae mobility test (Example 26)
# Spodoptera exiqua larvae = experiment: Topical application of Emamectin-benzoate/tocopherol acetone solutions, LD50 (Example 9); format: in vivo; conditions: topical 1 μl acetone solution; mortality recorded 48 h after applying
# Experimental: A range of Emamectin-benzoate and tocopherol, all-rac alpha, solutions with varying concentrations of each compound in acetone was prepared. Mixed solutions of Emamectin-benzoate and tocopherol, all-rac alpha, were also prepared. Larvae of Spodoptera exiqua were treated topically with either an Emamectin-benzoate acetone solution (1 μl), a tocopherol acetone solution (1 μl) or a solution containing both of the two compounds in the ratios 1:1 and 1:3 (1 μl). Log dose-mortality curves were constructed for the Emamectin-benzoate solutions, the tocopherol solutions and the mixtures. […] A comparison was made between the actual observed LD50 and the expected value, based on the Wadley method as described previously.
# [11] = system: adult sea lice (Lepeophtheirus salmonis); conditions: tested alone at various concentrations
# Experimental: Eur. 5th Ed was studied on adult sea lice (Lepeophtheirus salmonis), a fish parasite, in seawater in Petri dishes. Emamectin benzoate and tocopheryl aceate were tested at various concentrations. In addition, mixtures of Emamectin benzoate and tocopheryl aceate, ratio 1:10 based on weight, were tested as well.
# [12] = system: larvae of Lucilia cuprina (sheep blowfly)
# From the text: A mixture of Spinosad and tocopheryl acetate, all-rac alpha, Ph.
# houseflies [13] = experiment: Dorsal application of Abamectin and Vitamin E derivatives, mortality (Example 18); format: in vivo, housefly; conditions: combination of Abamectin and the Vitamin E derivative; 2 μl dorsally; Colby
# Experimental: as §1, with “on houseflies.” for “on nymphs of Dysdercus cingulatus.”, “each housefly” for “each Dysdercus cingulatus”, “on houseflies” for “on Dysdercus cingulatus”, “table 18.” for “table 19.”
# [14] = system: Dysdercus cingulatus nymphs; format: in vivo; conditions: 2000 ng applied on each nymph; 24 h after applying
# Experimental: A range of Abamectin solutions in acetone was prepared. Similarly, a range of tocopherol, all-rac alpha, solutions in acetone was prepared. Abamectin solution (2 μl), tocopherol solution (2 μl) or both were applied topically on nymphs of Dysdercus cingulatus. Abamectin was applied dorsally while tocopherol was applied ventrally. […] The mortality of the nymphs was recorded 24 h after applying the solutions.
# [15] = system: Dysdercus cingulatus nymphs; experiment: Topical application of Abamectin/tocopherol acetone solutions, LD50 (Example 5); format: in vivo; conditions: sum of Abamectin and tocopherol; mortality recorded 48 h after applying
# Experimental: as §2, with “of Abamectin” for “of Ivermectin”, “of tocopherol, all-rac alpha,” for “of tocopherol”, “an Abamectin” for “an Ivermectin”, “μl). The Dysdercus cingulatus mortality was recorded 48 h after applying the products.” for “μl).”
# Log dose-mortality curves were constructed for the Abamectin and the tocopherol treatments. LD50 values based on the sum of Abamectin and tocopherol contents (ng active ingredient(s) per nymph) were calculated.
# From the observed LD50 values for Abamectin and tocopherol expected LD50 values for the mixtures were calculated according to Wadley's formula.
# [16] = inactivation of the fleas, mixture: based on the concentration of Selamectin
# [17] = 30 ng applied per nymph, after 24 h
# [18] = 30 ng applied per nymph, after 48 h
# [19] = 100 ng applied per nymph, after 24 h
# [20] = 100 ng applied per nymph, after 48 h
# [21] = 300 ng applied per nymph, after 24 h
# [22] = 300 ng applied per nymph, after 48 h
# [23] = tested alone, in the tested dose range
compound,measurement,setting,value
Cc1cc(O)cc2c1O[C@](C)(CCC[C@H](C)CCC[C@H](C)CCCC(C)C)CC2 [(+)delta-tocopherol],R (obs mortality/exp mortality),[1],1.6
O=C(O)c1cccnc1 [Nicotinic acid],R (obs mortality/exp mortality),houseflies [2],1.4
CO[C@H]1C[C@H](O[C@@H]2/C(C)=C/C[C@@H]3C[C@@H](C[C@]4(CC[C@H](C)[C@@H](C5CCCCC5)O4)O3)OC(=O)[C@@H]3C=C(C)/C(=N/O)[C@H]4OC/C(=C\C=C\[C@@H]2C)[C@]43O)O[C@@H](C)[C@@H]1O [Selamectin],ED50 Larvae contact,[3]; [16],31 ppm
same,ED50 Adult contact,[4]; [16],24330 ppm
same,ED50 Larvae systemic,[5]; [16],1.5 ppm
Spinosad,% protection,Tetranychus urticae; 100 g/ha,5%
same,% protection,Tetranychus urticae; 300 g/ha,5%
Ivermectin,Mortality (%) for each ingredient,[6]; [17],8%
same,Mortality (%) for each ingredient,[6]; [18],27%
same,Mortality (%) for each ingredient,[6]; [19],33%
same,Mortality (%) for each ingredient,[6]; [20],65%
same,Mortality (%) for each ingredient,[6]; [21],63%
same,Mortality (%) for each ingredient,[6]; [22],86%
same,LT50,"[7]; in total 20,000 ng/nymph applied dorsally, two replicates of ten nymphs",9.1 h
same,LFI-50 H. con.,Haemonchus contortus,6.10 ppb
same,LFI-96 H. con.,Haemonchus contortus,32.12 ppb
same,LFI-99 H. con.,Haemonchus contortus,40.68 ppb
same,LFI-50 T. cir.,[8],6.37 ppb
same,LFI-96 T. cir.,[8],12.59 ppb
same,LFI-99 T. cir.,[8],17.35 ppb
same,LFI-50 T. col.,[9],2.01 ppb
same,LFI-96 T. col.,[9],8.63 ppb
same,LFI-99 T. col.,[9],10.81 ppb
same,EC50,"[10]; mobility of the microfilariae, read-out: EC50 value for Ivermectin",5.8 µM
Emamectin-benzoate,LD50obs,Spodoptera exiqua larvae,4.30 ng AI(s)/larvae
Cc1c(C)c2c(c(C)c1OC(=O)CCC(=O)O)CC[C@@](C)(CCC[C@H](C)CCC[C@H](C)CCCC(C)C)O2 [(+)alpha-tocopheryl succinate],R (obs mortality/exp mortality),[1],1.3
COC(=O)c1cccnc1 [Methyl nicotinate],R (obs mortality/exp mortality),houseflies [2],3.0
O=C(O)c1ccncc1 [Isonicotinic acid],R (obs mortality/exp mortality),houseflies [2],>2
CC(=O)Oc1c(C)c(C)c2c(c1C)CCC(C)(CCC[C@H](C)CCC[C@H](C)CCCC(C)C)O2 (mixture of isomers) [tocopheryl acetate],% protection,Tetranychus urticae; 100 g/ha,15%
same,% protection,Tetranychus urticae; 300 g/ha,8.8%
same,feeding inhibition activity,Haemonchus contortus; [23],did not have any feeding inhibition activity
same,feeding inhibition activity,[8]; [23],did not have any feeding inhibition activity
same,feeding inhibition activity,[9]; [23],did not have any feeding inhibition activity
same,activity in its own right,[11],did not have any activity
same,activity in its own right,[3]; tested alone,did not have any activity
same,activity in its own right,[4]; tested alone,did not have any activity
same,activity in its own right,[5]; tested alone,did not have any activity
same,effect on mobility of the microfilaria,"[10]; alone, in the concentration range tested",did not affect the mobility
same,activity on the larvae,[12],no activity
CC(=O)Oc1c(C)c(C)c2c(c1C)CC[C@@](C)(CCC[C@H](C)CCC[C@H](C)CCCC(C)C)O2 [(+)alpha-tocopheryl acetate],R (obs mortality/exp mortality),houseflies [13],1.9
same,R (obs mortality/exp mortality),[1],1.2
Cc1c(C)c2c(c(C)c1OC(=O)c1cccnc1)CC[C@@](C)(CCC[C@H](C)CCC[C@H](C)CCCC(C)C)O2 [(+)alpha-tocopheryl nicotinate],R (obs mortality/exp mortality),houseflies [13],3.0
same,R (obs mortality/exp mortality),[1],1.2
same,R (obs mortality/exp mortality),houseflies [2],3.0
CCOC(=O)c1cccnc1 [Ethyl nicotinate],R (obs mortality/exp mortality),houseflies [2],1.4
Cc1c(C)c2c(c(C)c1O)CC[C@@](C)(CCC[C@H](C)CCC[C@H](C)CCCC(C)C)O2 [(+)alpha-tocopherol],R (obs mortality/exp mortality),houseflies [13],2.0
same,R (obs mortality/exp mortality),[1],1.1
"CO[C@H]1C[C@H](O[C@H]2[C@H](C)O[C@@H](O[C@@H]3/C(C)=C/C[C@@H]4C[C@@H](C[C@]5(C=C[C@H](C)[C@@H](C6CCCCC6)O5)O4)OC(=O)[C@@H]4C=C(C)[C@@H](O)[C@H]5OC/C(=C\C=C\[C@@H]3C)[C@]54O)C[C@@H]2OC)O[C@@H](C)[C@@H]1O [DOR, Doramectin]",LFI-50 H. con.,Haemonchus contortus,2.63 ppb
same,LFI-96 H. con.,Haemonchus contortus,10.37 ppb
same,LFI-99 H. con.,Haemonchus contortus,16.30 ppb
same,LFI-50 T. cir.,[8],6.12 ppb
same,LFI-96 T. cir.,[8],13.14 ppb
same,LFI-99 T. cir.,[8],18.52 ppb
same,LFI-50 T. col.,[9],2.57 ppb
same,LFI-96 T. col.,[9],8.04 ppb
same,LFI-99 T. col.,[9],12.22 ppb
"Cc1c(C)c2c(c(C)c1O)CCC(C)(CCCC(C)CCCC(C)CCCC(C)C)O2 (racemic) [tocopherol, tocopherol, all-rac alpha]",% Mortality for each ingredient,[14],0%
same,LD50obs,[15],">20,000 ng tocopherol ng AI(s) per nymph"
same,Mortality (%) for each ingredient,[6]; [17],0%
same,Mortality (%) for each ingredient,[6]; [18],0%
same,Mortality (%) for each ingredient,[6]; [19],0%
same,Mortality (%) for each ingredient,[6]; [20],0%
same,Mortality (%) for each ingredient,[6]; [21],0%
same,Mortality (%) for each ingredient,[6]; [22],0%
same,LD50obs,Spodoptera exiqua larvae,>20000 ng AI(s)/larvae
same,Mortality during the test period,"[7]; 20,000 ng tocopherol per nymph, 24 h test period",did not die
"Cc1c(C)c2c(c(C)c1O)CCC(C)(C(=O)O)O2 (stereo not shown) [Trolox, 6-hydroxy-2,5,7,8-tetramethylchroman-2-carboxylic acid]",R (obs mortality/exp mortality),houseflies [13],1.3
